For one test, the target named is T1, recombinant human PARP7 protein (Homo sapiens, UniProt Q7Z3E1).
T1 construct: purchased Abcam ab271651
T1 sequence (Q7Z3E1 1-657): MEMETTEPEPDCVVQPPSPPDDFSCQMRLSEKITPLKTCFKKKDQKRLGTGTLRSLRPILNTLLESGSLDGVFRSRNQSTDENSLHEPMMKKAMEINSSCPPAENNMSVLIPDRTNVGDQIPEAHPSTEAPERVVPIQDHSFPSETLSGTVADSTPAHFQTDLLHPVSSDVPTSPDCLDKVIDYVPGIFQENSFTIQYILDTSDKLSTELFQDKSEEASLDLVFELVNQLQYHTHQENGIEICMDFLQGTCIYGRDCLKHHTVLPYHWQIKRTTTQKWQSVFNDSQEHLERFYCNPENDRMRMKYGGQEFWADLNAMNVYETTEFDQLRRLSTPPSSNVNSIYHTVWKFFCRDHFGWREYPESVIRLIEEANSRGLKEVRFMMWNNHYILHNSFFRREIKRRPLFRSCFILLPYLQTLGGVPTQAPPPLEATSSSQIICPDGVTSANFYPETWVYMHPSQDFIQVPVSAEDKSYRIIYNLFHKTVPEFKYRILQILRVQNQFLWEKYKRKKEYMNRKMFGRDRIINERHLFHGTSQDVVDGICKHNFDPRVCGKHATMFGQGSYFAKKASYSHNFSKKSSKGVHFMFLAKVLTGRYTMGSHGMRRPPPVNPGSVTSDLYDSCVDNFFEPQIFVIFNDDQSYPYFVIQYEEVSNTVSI
The test is described as follows: Inhibition of PARP7 biological enzyme activity (histone-coated plate, Biotin-NAD+, chemiluminescence). Particulars: recombinant human PARP7, Biotin-NAD+ substrate. In kind it is biochemical. The method, then: The recombinant human PARP7 protein kit (Abcam, catalog number ab271651) was used for the assay. According to the kit instructions, 30 μL of histone coating solution (1.5 μg/mL) was first applied to the 384 well holes of the reaction plate and coated at 4° C. for 2 hours. Then, the histone coated solution was washed off, and 50 μL sealing buffer was added to each well, and the sealing buffer was washed off after incubation at 25° C. for 60 minutes. 1000 times the concentration of the compound was 10 configured and diluted from 1 mM to 0.05 μM, and the configured compound was transferred to 384-well plates with 25 nL per well using Echo. The final concentration of the compound in the reaction system was 1000 nM, 333.33 nM, 111.11 nM, 37.03 nM, 12.34 nM, 4.11 nM, 1.37 nM, 0.45 nM, 0.15 nM, 0.05 nM, which was used as the test hole. At the same time, 25 nL DMSO was added to the negative control well and the positive control well. The PARP7 enzyme solution with a concentration of 1.67 times was prepared, and the PARP7 enzyme solution was added to the test hole and the positive control hole with 15 μL each, while the negative control hole was added with 15 μL base Buffer, and incubated at 25° C. for 15 minutes. Then 10 μL 2.5 times Biotin-NAD+ substrate solution was added and incubated at 25° C. for 60 min. After the reaction solution was washed off, the 384-well reaction plates were treated with closed buffer solution diluted with streptavidin-HRP (1:500), each well was 30 μL, and incubated at 25° C. for 30 min. After the HRP buffer was washed off, 30 μL HRP chemiluminescent substrate mixture was added to each well, and the luminescence signal (RLU) of each well was detected by Envision. Calculation formula: Inhibition rate %=(average positive control-RLU compound)/(average positive control-average negative control))*100%. The dose-response curves of each compound were fitted by GraphPad Prism 8 to get IC50 values. IC50 values less than 0.01 μM are labeled as “+++”, IC50 values from 0.01 to 0.1 µM are labeled as “++”, and IC50 values greater than 0.1 to 10.0 μM are labeled as “+”.
As for `C[C@@H](CNOCC(=O)N1CCN(c2ncc(C(F)(F)F)cn2)CC1)Nc1cn[nH]c(=O)c1C(F)(F)F` [Example 1, (S)-5-((1-((2-oxo-2-(4-(5-(trifluoromethyl)pyrimidin-2-yl)piperazin-1-yl)ethoxy)amino)propan-2-yl)amino)-4-(trifluoromethyl)pyridazin-3(2H)-one], the IC50 is less than 10 nM.

For `C[C@@H](CN(C)OCC(=O)N1CCN(c2ncc(C#N)cn2)CC1)Nc1cn[nH]c(=O)c1C(F)(F)F` [Example 4, (S)-2-(4-(2-((methyl(2-((6-oxo-5-(trifluoromethyl)-1,6-dihydropyridazin-4-yl)amino)propyl)amino)oxy)acetyl)piperazin-1-yl)pyrimidine-5-carbonitrile], the IC50 is 10 to 100 nM.

With `C/C(=N\OC[C@H](C)Nc1cn[nH]c(=O)c1C(F)(F)F)C(=O)N1CCN(c2ncc(C(F)(F)F)cn2)CC1` [Example 16, (S,E)-5-((1-(((1-oxo-1-(4-(5-(trifluoromethyl)pyrimidin-2-yl)piperazin-1-yl)propan-2-ylidene)amino)oxy)propan-2-yl)amino)-4-(trifluoromethyl)pyridazin-3(2H)-one], the IC50 was in the range of 10 to 100 nM.

For another test, the system named is NCI-H1373 cancer cells. Nature of the test: NCI-H1373 cancer cell growth inhibition (CellTiter-Glo, 144 hours). The class given is cell-based. Particulars: Homo sapiens, 144 hours culture. The method, then: Promega CellTiter-Glo cell activity assay kit (Item No.: Promege-G7573) was used to determine the cell activity. 90 μL NCI-H1373 cell suspension (ATCC, catalog No. CRL-5866, batch No. 58078716) was spread into the pores of the 96-well plate with 3500 cells per well. After 24 hours, the 10 μL prepared 10× compound working solution was added into the pores of the cell culture plate with a final concentration of 10 μM. 3.3333 μM, 1.1111 μM, 0.3704 μM, 0.1235 μM, 0.0412 μM, 0.0137 μM, 0.0046 μM, 0.0015 μM, 0.0005 μM, 10 μL DMSO was added to the solvent control, and the final concentration of DMSO was 0.2%. The 0-day plates were collected for analysis, and after 144 hours of culture, the growth condition of cells was detected according to the instructions of CellTiter-Glo cell activity assay kit. Add 50 μL of CellTiter-Glo working liquid into each hole of the cell culture plate, shake the plates in the dark for 2 minutes until cell lysis, and place at room temperature for 10 minutes to detect the luminous signal (RUL) of each cell hole on the 2104En Vision board reader.
Calculation formula: Growth inhibition rate %=(1−(RLU compound−RLU Day0)/(RLU solvent control−RLU Day0))*100%. The dose-response curves of each compound were fitted by GraphPad Prism 8 to obtain IC50 values.
For the matter, IC50 values less than 0.1 μM are labeled “+++”, values from 0.1 to 1 μM are labeled “++”, and values greater than 1 to 10 μM are labeled “+”.
Consider `CC1CN(c2ncc(C(F)(F)F)cn2)CCC1CC(=O)NOC[C@H](C)Nc1cn[nH]c(=O)c1C(F)(F)F` (stereo partly drawn) [Example 52, 2-(3-methyl-1-(5-(trifluoromethyl)pyrimidin-2-yl)piperidin-4-yl)-N—((S)-2-((6-oxo-5-(trifluoromethyl)-1,6-dihydropyridazin-4-yl)amino)propoxy)acetamide], for which the IC50 was 1000 to 10000 nM.

`C[C@@H](CONC(=O)CC1CCN(c2ncc3c(n2)CC[C@@]3(C)O)CC1)Nc1cn[nH]c(=O)c1C(F)(F)F` [Example 61] showed a concentration for half-maximal inhibition (IC50) of 1000 to 10000 nM.

With `C[C@@H](CONC(=O)C[C@H]1CCN(c2ncc(C(F)(F)F)cn2)C[C@H]1O)Nc1cn[nH]c(=O)c1C(F)(F)F` [Example 54, 2-((3S,4R)-3-hydroxy-1-(5-(trifluoromethyl)pyrimidin-2-yl)piperidin-4-yl)-N—((S)-2-((6-oxo-5-(trifluoromethyl)-1,6-dihydropyridazin-4-yl)amino)propoxy)acetamide], the IC50 lay in the range of 1000 to 10000 nM.

Regarding `C[C@@H](CONC(=O)C1(C2CCN(c3ncc(C(F)(F)F)cn3)CC2)CC1)Nc1cn[nH]c(=O)c1C(F)(F)F` [Example 50, (S)—N-(2-((6-oxo-5-(trifluoromethyl)-1,6-dihydropyridazin-4-yl)amino)propoxy)-1-(1-(5-(trifluoromethyl)pyrimidin-2-yl)piperidin-4-yl)cyclopropanecarboxamide], the IC50 lay within 1000 to 10000 nM.

Consider `C[C@@H](CON(C)C(=O)CC1CCN(c2ncc(C(F)(F)F)cn2)CC1)Nc1cn[nH]c(=O)c1C(F)(F)F` [Example 45, (S)—N-methyl-N-(2-((6-oxo-5-(trifluoromethyl)-1,6-dihydropyridazin-4-yl)amino)propoxy)-2-(1-(5-(trifluoromethyl)pyrimidin-2-yl)piperidin-4-yl)acetamide], for which the half-maximal inhibitory concentration (IC50) fell in the range of 1000 to 10000 nM.

For `[2H]C(C(=O)NOC[C@H](C)Nc1cn[nH]c(=O)c1C(F)(F)F)C1=CCN(c2ncc(C(F)(F)F)cn2)CC1` (some centres unmarked) [Example 62], the IC50 was 1000 to 10000 nM.

Turning to `C[C@@H](CONC(=O)C[C@H]1CCN(c2ncc(C(F)(F)F)cn2)C[C@@H]1O)Nc1cn[nH]c(=O)c1C(F)(F)F` [Example 55, 2-((3R,4R)-3-hydroxy-1-(5-(trifluoromethyl)pyrimidin-2-yl)piperidin-4-yl)-N—((S)-2-((6-oxo-5-(trifluoromethyl)-1,6-dihydropyridazin-4-yl)amino)propoxy)acetamide], the IC50 was 1000 to 10000 nM.

For `C[C@@H](CONC(=O)C=C1CCN(c2ncc(C(F)(F)F)cn2)CC1)Nc1cn[nH]c(=O)c1C(F)(F)F` [Example 20, (S)—N-(2-((6-oxo-5-(trifluoromethyl)-1,6-dihydropyridazin-4-yl)amino)propoxy)-2-(1-(5-(trifluoromethyl)pyrimidin-2-yl)piperidin-4-ylidene)acetamide], the IC50 was 1000 to 10000 nM.

Consider `CC1=C(CC(=O)NOC[C@H](C)Nc2cn[nH]c(=O)c2C(F)(F)F)CCN(c2ncc(C3CC3)cn2)C1` [Example 31, (S)-2-(1-(5-cyclopropylpyrimidin-2-yl)-5-methyl-1,2,3,6-tetrahydropyridin-4-yl)-N-(2-((6-oxo-5-(trifluoromethyl)-1,6-dihydropyridazin-4-yl)amino)propoxy)acetamide], for which the IC50 lay within 100 to 1000 nM.

In turn, `C[C@@H](CONC(=O)CN1CCC2(CCN(c3ncc(C(F)(F)F)cn3)CC2)C1)Nc1cn[nH]c(=O)c1C(F)(F)F` [Example 56, (S)—N-(2-((6-oxo-5-(trifluoromethyl)-1,6-dihydropyridazin-4-yl)amino)propoxy)-2-(8-(5-(trifluoromethyl)pyrimidin-2-yl)-2,8-diazaspiro(4.5)decan-2-yl)acetamide] showed an IC50 of 1000 to 10000 nM.

Compound `C[C@@H](CONC(=O)CC1CCN(c2ncc3c(n2)CCC3=O)CC1)Nc1cn[nH]c(=O)c1C(F)(F)F` [Example 42, (S)—N-(2-((6-oxo-5-(trifluoromethyl)-1,6-dihydropyridazin-4-yl)amino)propoxy)-2-(1-(5-oxo-6,7-dihydro-5H-cyclopenta(d)pyrimidin-2-yl)piperidin-4-yl)acetamide] gave an IC50 of 1000 to 10000 nM.

The compound `C[C@@H](CONS(=O)(=O)CC1CCN(c2ncc(C(F)(F)F)cn2)CC1)Nc1cn[nH]c(=O)c1C(F)(F)F` [Example 47, (S)—N-(2-((6-oxo-5-(trifluoromethyl)-1,6-dihydropyridazin-4-yl)amino)propoxy)-1-(1-(5-(trifluoromethyl)pyrimidin-2-yl)piperidin-4-yl)methanesulfonamide] yielded an IC50 of 1000 to 10000 nM.

`C[C@@H](CONC(=O)CC1CCN(c2ccc(C(F)(F)F)cn2)CC1)Nc1cn[nH]c(=O)c1C(F)(F)F` [Example 32, (S)—N-(2-((6-oxo-5-(trifluoromethyl)-1,6-dihydropyridazin-4-yl)amino)propoxy)-2-(1-(5-(trifluoromethyl)pyridin-2-yl)piperidin-4-yl)acetamide]: the IC50 fell in the range of 100 to 1000 nM.

Consider `C[C@@H](CONC(=O)CC1CCN(c2ccc(C#N)cn2)CC1)Nc1cn[nH]c(=O)c1C(F)(F)F` [Example 34, (S)-2-(1-(5-cyanopyridin-2-yl)piperidin-4-yl)-N-(2-((6-oxo-5-(trifluoromethyl)-1,6-dihydropyridazin-4-yl)amino)propoxy)acetamide], for which the IC50 is 100 to 1000 nM.

These data come from patent publication US20240336596A1, “PARP7 INHIBITOR AND USE THEREOF” (NOVOSTAR PHARMACEUTICALS, LTD., priority 2022, published 2024).
